In US20220144812A1, “QUINOLINE DERIVATIVES AND THEIR USE FOR THE TREATMENT OF CANCER” (Epizyme, Inc., priority 2019, published 2022):
pIC50: −log10 of the molar value.

How the values were obtained:
647V cells = assay: High throughput proliferation (HTP) assay; format: cell-based; details: Homo sapiens, 647-V, high throughput proliferation; read-out: CREBBP HTP IC50
In short: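 Proliferation IC50 (micromolar) derived from a 7-day CellTiter-Glo viable-cell readout in 647V cells exposed, in triplicate, to rising compound concentrations; cells grown in DMEM plus 15% heat-inactivated FBS at 37° C under 5% CO2.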

EP300 (P300(1048-1664)) = molecular target: T1, EP300 (P300(1048-1664)) (Homo sapiens, UniProt Q09472); assay: Biochemical assay for EP300, SAMDI; details: EP300, SAMDI; read-out: EP300 Biochemistry IC50
T1 construct: P300(1048-1664)
T1 sequence (Q09472 1048-1664): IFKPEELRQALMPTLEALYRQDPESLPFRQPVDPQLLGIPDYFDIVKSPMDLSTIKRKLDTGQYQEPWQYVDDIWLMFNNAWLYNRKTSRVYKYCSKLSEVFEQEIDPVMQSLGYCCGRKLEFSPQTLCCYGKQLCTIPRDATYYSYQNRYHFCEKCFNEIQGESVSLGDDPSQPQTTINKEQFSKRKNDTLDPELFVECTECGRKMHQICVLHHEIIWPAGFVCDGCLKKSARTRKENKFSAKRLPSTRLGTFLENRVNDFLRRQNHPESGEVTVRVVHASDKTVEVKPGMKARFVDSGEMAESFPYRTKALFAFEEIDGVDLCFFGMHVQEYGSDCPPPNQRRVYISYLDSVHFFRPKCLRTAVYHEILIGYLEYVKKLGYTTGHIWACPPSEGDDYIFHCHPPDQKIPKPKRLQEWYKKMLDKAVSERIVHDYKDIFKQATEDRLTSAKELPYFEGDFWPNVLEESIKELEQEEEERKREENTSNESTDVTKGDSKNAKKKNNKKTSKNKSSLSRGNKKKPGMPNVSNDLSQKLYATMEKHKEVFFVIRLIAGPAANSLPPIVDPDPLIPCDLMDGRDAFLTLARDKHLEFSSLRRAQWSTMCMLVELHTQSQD
Description: The following example describes materials and methods relating to a biochemical assay for EP300. IC50 values (micromolar (μM)) are summarized in Table 1, Table 2, and Table 3 under the column labeled: “EP300 Biochemistry IC50 (micromolar).”

CREBBP (1084-1701) = molecular target: T2, CREBBP (1084-1701) (Homo sapiens, UniProt Q92793); assay: Biochemical assay for CREBBP (1084-1701), SAMDI; details: SAMDI, read-out: CREBBP Biochemistry IC50
T2 construct: measured in the following biochemical assay using CREBBP (1084-1701); purchased
T2 sequence (Q92793 1084-1701): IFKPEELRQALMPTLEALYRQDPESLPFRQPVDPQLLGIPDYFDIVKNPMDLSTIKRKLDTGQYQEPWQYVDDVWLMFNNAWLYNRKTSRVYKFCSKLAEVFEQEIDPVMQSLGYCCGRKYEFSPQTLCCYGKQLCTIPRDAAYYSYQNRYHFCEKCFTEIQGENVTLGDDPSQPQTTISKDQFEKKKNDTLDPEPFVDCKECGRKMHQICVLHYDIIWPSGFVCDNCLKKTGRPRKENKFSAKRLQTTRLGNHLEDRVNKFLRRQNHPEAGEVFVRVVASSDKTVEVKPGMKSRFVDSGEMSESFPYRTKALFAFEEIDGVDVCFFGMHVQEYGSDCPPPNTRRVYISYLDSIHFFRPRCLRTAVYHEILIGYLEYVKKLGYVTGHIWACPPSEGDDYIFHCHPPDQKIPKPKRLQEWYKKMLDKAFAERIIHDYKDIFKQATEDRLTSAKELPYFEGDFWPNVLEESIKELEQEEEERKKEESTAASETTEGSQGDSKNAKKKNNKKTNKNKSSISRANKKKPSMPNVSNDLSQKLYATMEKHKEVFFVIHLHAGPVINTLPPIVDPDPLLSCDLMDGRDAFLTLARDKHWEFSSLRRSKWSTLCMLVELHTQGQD
In short: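 Acetyltransferase activity measured by SAMDI mass spectrometry after capture on biochip. Enzyme sat with compound 30 min at RT before acetyl-CoA and biotinylated H3 11-25 (K14R, K23R) peptide were added for 30 min at RT. Formic acid quench, bicarbonate neutralisation; IC50 values reported.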

[1] = tested on: H3K18Ac in HB-CLS-2 cells; assay: H3K18AC in-cell western (ICW) assay; format: cell-based; details: H3K18Ac in-cell western; read-out: CREBBP ICW IC50
In short: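 In-cell western: after methanol fixation, blocking, overnight 4° C anti-H3K18Ac staining, then 800CW secondary plus DRAQ5 for DNA content, integrated intensities were scanned at 800 and 700 nm. Before this, compound exposure lasted 2 hr at 37° C in HB-CLS-2 cells plated 16–24 hours earlier. Values expressed as IC50 (μM).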

CCn1ncc(CN(C)C(=O)c2nc(-c3cc(NC)c4cn[nH]c4c3)nc3ccc(Cl)cc23)c1C [Compound 551]
pIC50 (647V cells): 6.63 | pIC50 (EP300 (P300(1048-1664))): 6.86 | pIC50 (CREBBP (1084-1701)): 7.57 | pIC50 [1]: 6.82

CCn1ncc(CN(C)C(=O)c2nc(-c3cc(C)nc(N[C@@H]4CCNC4)c3)nc3ccc(Cl)cc23)c1C [Compound 552]
pIC50 (647V cells): 7.14 | pIC50 (EP300 (P300(1048-1664))): 8.20 | pIC50 (CREBBP (1084-1701)): 7.87 | pIC50 [1]: 7.30

CCn1ncc(CN(C)C(=O)c2cc(-c3ccc(NCCNC)c(C)n3)nc3ccc(Cl)cc23)c1C1CC1 [Compound 553]
pIC50 (647V cells): 6.12 | pIC50 (EP300 (P300(1048-1664))): 6.27 | pIC50 (CREBBP (1084-1701)): 7.28 | pIC50 [1]: 6.33

CCn1ncc(CN(C)C(=O)c2nc(-c3cc(C)cc(NC4CNCC4(F)F)c3)nc3ccc(Cl)cc23)c1C (stereo not shown) [Compound 554]
pIC50 (647V cells): 5.78 | pIC50 (EP300 (P300(1048-1664))): 6.76 | pIC50 (CREBBP (1084-1701)): 7.27 | pIC50 [1]: 5.97

CCc1ncc(CN(C)C(=O)c2nc(-c3cc(Cl)cc(NCCNC)c3)nc3ccc(Cl)cc23)n1C [Compound 555]
pIC50 (647V cells): 6.99 | pIC50 (EP300 (P300(1048-1664))): 8.15 | pIC50 (CREBBP (1084-1701)): 7.64 | pIC50 [1]: 6.65

CCn1ncc(CN(C)C(=O)c2cc(-c3nn(C)c(C(=O)NC)c3C)nc3ccc(Cl)cc23)c1C [Compound 556]
pIC50 (647V cells): 5.20 | pIC50 (EP300 (P300(1048-1664))): ≤ 4.30 | pIC50 (CREBBP (1084-1701)): ≤ 4.30 | pIC50 [1]: 4.70

CCn1nc(C)c(CN(C)C(=O)c2cc(-c3ccc(NCCNC)c(C)n3)nc3ccc(Cl)cc23)c1C [Compound 557]
pIC50 (647V cells): 5.17 | pIC50 (EP300 (P300(1048-1664))): 5.28 | pIC50 (CREBBP (1084-1701)): 4.85 | pIC50 [1]: 4.74

CCn1ncc(CN(C)C(=O)c2nc(-c3ccc4n[nH]c(NC)c4c3)nc3ccc(Cl)cc23)c1C [Compound 558]
pIC50 (647V cells): 7.12 | pIC50 (EP300 (P300(1048-1664))): 8.82 | pIC50 (CREBBP (1084-1701)): 8.37 | pIC50 [1]: 7.41

CCn1ncc(CN(C)C(=O)c2cc(-c3ccc(NCCNC)c(C)n3)nc3ccc(Cl)cc23)c1COC [Compound 559]
pIC50 (647V cells): 5.91 | pIC50 (EP300 (P300(1048-1664))): 5.69 | pIC50 (CREBBP (1084-1701)): 6.23 | pIC50 [1]: 6.08

CCc1ncc(CN(C)C(=O)c2cc(-c3ccc(NCCNC)c(C)n3)nc3ccc(Cl)cc23)o1 [Compound 560]
pIC50 (647V cells): 6.35 | pIC50 (EP300 (P300(1048-1664))): 6.39 | pIC50 (CREBBP (1084-1701)): 6.85 | pIC50 [1]: 6.62

CCc1ncc(CN(C)C(=O)c2cc(-c3ccc(NC4CN(C)C4)c(C)n3)nc3ccc(Cl)cc23)n1C [Compound 561]
pIC50 (647V cells): 7.64 | pIC50 (EP300 (P300(1048-1664))): 8.19 | pIC50 (CREBBP (1084-1701)): 7.72 | pIC50 [1]: 7.23

CCn1ncc(CN(C)C(=O)c2nc(-c3cc4c(NC)n[nH]c4cc3C)nc3ccc(Br)cc23)c1C [Compound 562]
pIC50 (647V cells): 7.06 | pIC50 (EP300 (P300(1048-1664))): 7.83 | pIC50 (CREBBP (1084-1701)): 7.31 | pIC50 [1]: 6.81

CCc1ncc(CN(C)C(=O)c2nc(-c3cc4c(NC)n[nH]c4cc3C)nc3ccc(Cl)cc23)n1C [Compound 563]
pIC50 (647V cells): 7.43 | pIC50 (EP300 (P300(1048-1664))): 8.24 | pIC50 (CREBBP (1084-1701)): 7.87 | pIC50 [1]: 7.26

CNCCNc1ccc(-c2cc(C(=O)N(C)Cc3cn[nH]c3C)c3cc(Cl)ccc3n2)nc1C [Compound 564]
pIC50 (647V cells): 5.02 | pIC50 (EP300 (P300(1048-1664))): ≤ 4.30 | pIC50 (CREBBP (1084-1701)): ≤ 4.30 | pIC50 [1]: 4.70

CCc1ncc(CN(C)C(=O)c2cc(-c3ccc(NCCNC)c(F)n3)nc3ccc(Cl)cc23)n1C [Compound 565]
pIC50 (647V cells): 6.71 | pIC50 (EP300 (P300(1048-1664))): 7.47 | pIC50 (CREBBP (1084-1701)): 7.29 | pIC50 [1]: 6.81

CCc1ncc(CN(C)C(=O)c2nc(-c3cc(C)cc(NC4CNC4)c3)nc3ccc(Cl)cc23)n1C [Compound 566]
pIC50 (647V cells): 6.47 | pIC50 (EP300 (P300(1048-1664))): 7.95 | pIC50 (CREBBP (1084-1701)): 7.43 | pIC50 [1]: 6.09

CCc1ncc(CN(C)C(=O)c2cc(-c3cc(NCCNC)cc(OC)n3)nc3ccc(Cl)cc23)n1C [Compound 567]
pIC50 (647V cells): 7.49 | pIC50 (EP300 (P300(1048-1664))): 7.65 | pIC50 (CREBBP (1084-1701)): 7.10 | pIC50 [1]: 7.11

CCn1ncc(CN(C)C(=O)c2cc(-c3ccc(NCCOC)c(C)n3)nc3ccc(Cl)cc23)c1C [Compound 568]
pIC50 (647V cells): 6.59 | pIC50 (EP300 (P300(1048-1664))): 7.51 | pIC50 (CREBBP (1084-1701)): 7.63 | pIC50 [1]: 6.90

CCn1ncc(CN(C)C(=O)c2cc(-c3cc(NCCN(C)C)cc(C)n3)nc3ccc(Cl)cc23)c1C [Compound 570]
pIC50 (647V cells): 7.52 | pIC50 (EP300 (P300(1048-1664))): 7.86 | pIC50 (CREBBP (1084-1701)): 7.35 | pIC50 [1]: 7.12
